Read-outs that look alike come from different tables or passages of the source.
What was measured:
[1] = system: phospho-ERK; assay: Cellular phospho-ERK assay; assay type: cell-based; details: NCI-H358 cells, 2 hour incubation, ratio of p-Erk vs total Erk, read-out: IC50 (nM) pERK (Cell)
Protocol: NCI-H358 cells (ATCC® CRL-5807™) were cultured in T150 flask in growth medium (RPMI medium 1640-GlutaMAX™-I (ThermoFisher Scientific 61870) containing 10% fetal bovine serum (ThermoFisher Scientific 10091148)). The cells were harvested in growth medium after TrypLE (ThermoFisher scientific 12604021) digestion and were seeded in a 384-well collagen coated cell culture plate (Corning 356702) at a density of 15,000 cells/well, and incubated at 37° C., 5% CO2 overnight. The compound dose-response titrations were prepared and appropriate amounts of compounds were dispensed in a 384-well intermediate plate using an Echo 550 liquid handler. RPMI medium 1640-GlutaMAX™-I were added to the intermediate plate and transferred to 384-well cell culture plate, which was incubated at 37° C., 5% CO2 for 2 hours. After removal of medium from the plate, cells were lysed in lysis buffer from Alpha SureFire® Ultra™ Multiplex p-Erk and total Erk assay kit (PerkinElmer MPSU-PTERK) containing Halt™ Protease and Phosphotase inhibitor cocktail (ThermoFisher Scientific 78446) at room temperature with constant shaking at 300 rpm for 30 minutes. The cell lysates were then transferred to OptiPlate-384 plate (PerkinElmer 6005620) and the phosphorylation of Erk and total Erk levels were detected by Alpha SureFire Ultra Multiplex p-Erk kit (PerkinElmer MPSU-PTERK) following the manufacturer's protocol. Assay plates were read on an EnVision Multimode Plate Reader (PerkinElmer), and the ratio of p-Erk vs total Erk in each well was used as the final readout. Dose response curves were analyzed using a 4-parameter logistic model to calculate IC50 values using spotfire software.

[2] = molecular target: Biotinylated KRAS G12C protein (Homo sapiens (Human), UniProt P01116, C118S/C51S/C80L/G12C); assay: SOS-catalyzed nucleotide exchange assay (TR-FRET); assay type: biochemical; details: in vitro apparent potency; preincubation time of 60 minutes prior to addition of SOS
Sequence of Biotinylated KRAS G12C protein (P01116 other isoform, or with tags, fused parts or gaps, stated change not applied): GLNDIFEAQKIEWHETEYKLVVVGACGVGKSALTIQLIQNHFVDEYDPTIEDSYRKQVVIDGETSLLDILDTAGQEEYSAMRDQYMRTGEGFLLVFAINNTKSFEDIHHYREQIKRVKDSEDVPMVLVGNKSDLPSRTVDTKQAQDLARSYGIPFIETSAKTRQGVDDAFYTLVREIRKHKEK
Protocol: The SOS-catalyzed nucleotide exchange assay utilizes a preformed complex of recombinant biotinylated KRAS protein containing G12C/C51S/C80L/C118S mutations (183 amino acids; biotin on K10; leader sequence which is an AviTag; referred to as SEQ ID NO: 1 or “Biotinylated KRAS G12C protein” hereafter), Bodipy-GDP, and Terbium-streptavidin. Compounds are added to this complex and then after incubation for 60 minutes, the mixture is treated with recombinant SOS protein and unlabeled GTP. Small molecule inhibitors stabilize the Bodipy-GDP complex whereas the untreated protein rapidly exchanges Bodipy-GDP for unlabeled GTP resulting in reduced TR-FRET signal.
Biotinylated KRAS G12C protein (SEQ ID NO: 1) is diluted to 2 μM in an EDTA buffer (20 mM HEPES, 150 mM sodium chloride, 10 mM EDTA, and 0.01% Tween) and incubated at room temperature for one hour. This mixture is then further diluted to 90 nM in an assay buffer (20 mM HEPES, 150 mM sodium chloride, 10 mM magnesium chloride, and 0.005% Tween) containing 15 nM of Terbium-Streptavidin (Invitrogen, catalog #PV3577) and 900 nM of Bodipy-GDP and incubated at room temperature for six hours. This solution is referred to as Biotinylated KRAS G12C mixture.
Each test compound (10 mM stock in DMSO) is diluted in DMSO to make a 10-point, 3-fold dilution series in a 384-well low dead volume microplate (Labcyte, catalog #LP-0200). Once titrations are made, 10 nL of the diluted compounds is acoustically dispensed into a 384-well plate (Corning, catalog #3820) using an Echo 550 (Labcyte).
Each well of the plate receives 3 μL Biotinylated KRAS G12C mixture that had been incubating for six hours and 3 μL of assay buffer using a BioRAPTR (Beckman Coulter) and is incubated at room temperature for 60 minutes. Each well then receives 3 μL of 240 nM recombinant human SOS protein and 9 mM GTP (Sigma, G8877) in assay buffer and is incubated at room temperature for 60 minutes.
The time-resolved fluorescence resonance energy transfer signal of the plate is measured on an Envision (PerkinElmer) plate reader: Excitation filter=340 nm; emission1=495 nm; emission2=520 nm; dichroic mirror=D400/D505; delay time=100 μs. The signal of each well is determined as the ratio of the emission at 520 nm to that at 495 nm. Percent effect of each well is determined after normalization to control wells containing DMSO (no effect) or a saturating concentration of inhibitor (max effect). The apparent effect as a function of compound concentration is fit to a four parameter logistic equation.

Compound | IC50 [1] [nM] | IC50 [2] [nM] | IC50 ([1]; Homo sapiens, NCI-H358, 2 h) [nM]
C=CC(=O)N1C[C@H](C)N(c2nc(=O)n3c4nc(c(F)cc24)-c2cccc(C(F)(F)F)c2OCCOc2ccnc(C(C)C)c2-3)C[C@H]1C [Example 116, 2-[(2S,5R)-2,5-dimethyl-4-(prop-2-enoyl)piperazin-1-yl]-20-fluoro-6-(propan-2-yl)-14-(trifluoromethyl)-11,12-dihydro-4H-1,18-ethenopyrido[4,3-e]pyrimido[1,6-g][1,4,7,9]benzodioxadiazacyclododecin-4-one] | 2730 | 1100 | 
C=CC(=O)N1CCN(c2nc(=O)n3c4nc(c(F)cc24)-c2c(F)cccc2COCCc2ccnc(C(C)C)c2-3)[C@@H](C)C1 [Example 18a, 17,20-difluoro-2-[(2S)-2-methyl-4-(prop-2-enoyl)piperazin-1-yl]-6-(propan-2-yl)-10,11-dihydro-1,18-ethenopyrido[3,4-e]pyrimido[6,1-c][9,2,4]benzoxadiazacyclododecin-4(13H)-one] | 35 | 10 | 
C=CC(=O)N1CCN(c2nc(=O)n3c4nc(c(F)cc24)-c2c(F)cccc2OCCCCc2cnc(C(C)C)c-3c2)[C@H](C)C1 [Example 16b, 19,22-difluoro-2-[(2S)-2-methyl-4-(prop-2-enoyl)piperazin-1-yl]-7-(propan-2-yl)-11,12,13,14-tetrahydro-4H-1,20-(ethanediylidene)-6,10-(metheno)pyrimido[1,6-k][1,8,11,13]benzoxatriazacyclohexadecin-4-one] | 109 | 10 | 
C=CC(=O)N1C[C@H](C)N(c2nc(=O)n3c4nc(c(Cl)cc24)-c2c(F)cccc2OCC(F)(F)COc2ccnc(C(C)C)c2-3)C[C@H]1C [Example 59, 21-chloro-2-[(2S,5R)-2,5-dimethyl-4-(prop-2-enoyl)piperazin-1-yl]-12,12,18-trifluoro-6-(propan-2-yl)-12,13-dihydro-4H,11H-1,19-(ethanediylidene)pyrido[4,3-f]pyrimido[1,6-h][1,5,8,10] benzodioxadiazacyclo-tridecin-4-one] |  | 0.91 | 6.1
C=CC(=O)N1C[C@H](C)N(c2nc(=O)n3c4nc(c(F)cc24)-c2c(F)cccc2OCCCCc2cnc(C(C)C)c-3c2C)C[C@H]1C (single isomer, unassigned) [Example 89] | 4160 | 71 | 
C=CC(=O)N1CCN(c2nc(=O)n3c4nc(c(F)cc24)-c2c(F)cccc2OCCCCc2ccnc(C(C)C)c2-3)[C@@H](C)C1 (single isomer, unassigned) [Example 4a] | 1.5 | 2.4 | 
C=CC(=O)N1C[C@H](C)N(c2nc(=O)n3c4nc(c(F)cc24)-c2cc(F)cc4cnn(c24)CCCCc2ccnc(C(C)C)c2-3)C[C@H]1C [Example 108, 2-[(2S,5R)-2,5-dimethyl-4-(prop-2-enoyl)piperazin-1-yl]-18,22-difluoro-6-(propan-2-yl)-10,11,12,13-tetrahydro-4H-1,20-(ethanediylidene)pyrido [4′,3′:12,13]pyrimido[1′,6′:1,2][1,3,7] triazacyclotridecino[5,6,7-hi]indazol-4-one] |  | 20 | 68
C=CC(=O)N1C[C@H](C)N(c2nc(=O)n3c4nc(c(F)cc24)-c2c(F)cccc2OCCOc2ccnc(C(C)C)c2-3)C[C@H]1C (single isomer, unassigned) [Example 15a] |  | 6.5 | 11
C=CC(=O)N1CCN(c2nc(=O)n3c4nc(c(Cl)cc24)-c2c(F)cccc2OCCc2ccccc2-3)[C@@H](C)C1 [Example 9, 19-chloro-16-fluoro-2-[(2S)-2-methyl-4-(prop-2-enoyl)piperazin-1-yl]-10,11-dihydro-4H-1,17-ethenodibenzo[b,h]pyrimido[6,1-f][1,5,7]oxadiazacycloundecin-4-one] | 3830 | 1410 | 
C=CC(=O)N1CCN(c2nc(=O)n3c4nc(c(F)cc24)-c2c(F)cccc2OCCCOc2ccnc(C(C)C)c2-3)[C@@H](C)C1 [Example 1a, 18,21-difluoro-2-[(2S)-2-methyl-4-(prop-2-enoyl)piperazin-1-yl]-6-(propan-2-yl)-12,13-dihydro-4H,11H-1,19-ethenopyrido[4,3-f]pyrimido[1,6-h][1,5,8,10]benzodioxadiazacyclotridecin-4-one] | 21 | 11 | 
C=CC(=O)N1C[C@H](C)N(c2nc(=O)n3c4nc(c(Cl)cc24)-c2cc(F)cc(F)c2OCCCc2ccnc(C(C)C)c2-3)C[C@H]1C [Example 82, 20-chloro-2-[(2S,5R)-2,5-dimethyl-4-(prop-2-enoyl)piperazin-1-yl]-14,16-difluoro-6-(propan-2-yl)-11,12-dihydro-4H,10H-1,18-ethenopyrido[4,3-e]pyrimido[1,6-g][1,7,9]benzoxadiazacyclododecin-4-one] |  | 5.9 | 36
[2H]C1([2H])Oc2ccc(F)c(F)c2-c2nc3c(cc2Cl)c(N2CC(C)N(C(=O)C=C)CC2C)nc(=O)n3-c2c(ccnc2C(C)C)OC1([2H])[2H] [Example 57, (5aSa,17aRa)-20-chloro-2-[(2S,5R)-2,5-dimethyl-4-(prop-2-enoyl)piperazin-1-yl]-16,17-difluoro-6-(propan-2-yl)-11,12-di[(^2H)hydro](11,12-^2H2)-4H-1,18-(ethanediylidene)pyrido [4,3-e]pyrimido[1,6-g] [1,4,7,9]benzodioxadiaza-cyclododecin-4-one] |  | 0.51 | 6.1
C=CC(=O)N1CCN(c2nc(=O)n3c4nc(c(F)cc24)-c2c(ccc(F)c2F)OCC(F)(F)CCc2ccnc(C(C)C)c2-3)C[C@H]1C [Example 66, 12,12,17,18,21-pentafluoro-2-[(3R)-3-methyl-4-(prop-2-enoyl)piperazin-1-yl]-6-(propan-2-yl)-10,11,12,13-tetrahydro-4H-1,19-(ethanediylidene) pyrido[4,3-f]pyrimido[1,6-h] [1,8,10]benzoxadiazacyclo-tridecin-4-one] |  | 5.3 | 30
C=CC(=O)N1C[C@H](C)N(c2nc(=O)n3c4nc(c(F)cc24)-c2c(F)cccc2OCCCCc2cnc(C(C)C)c-3c2C)C[C@H]1C [Example 88, 2-[(2S,5R)-2,5-dimethyl-4-(prop-2-enoyl)piperazin-1-yl]-19,22-difluoro-24-methyl-7-(propan-2-yl)-11,12,13,14-tetrahydro-4H-1,20-etheno-6,10-(metheno)pyrimido[1,6-k][1,8,11,13]benzoxatriazacyclohexadecin-4-one] | 96 | 1.1 | 
C=CC(=O)N1C[C@H](C)N(c2nc(=O)n3c4nc(c(F)cc24)-c2cc(F)c(F)cc2OCCOc2ccnc(C(C)C)c2-3)C[C@H]1C [Example 84, 2-[(2S,5R)-2,5-dimethyl-4-(prop-2-enoyl)piperazin-1-yl]-15,16,20-trifluoro-6-(propan-2-yl)-11,12-dihydro-4H-1,18-(ethanediylidene)pyrido[4,3-e]pyrimido[1,6-g][1,4,7,9]benzodioxadiazacyclododecin-4-one] |  | 38 | 119
